Patent publication US7985889B2, “AtMIN7 mediated disease resistance to Pseudomonas syringae in Arabidopsis” (priority 2007, dated 2011)
Residues, ends and D or L forms follow the SMILES beside them. *: point of attachment. Cbz = O=C(OCc1ccccc1)*

Legend:
[1] = test system: transgenic plants expressing full-length HopM1; test: DEX spraying of transgenic plants expressing full-length HopM1: leaf necrosis; assay type: in vivo, Arabidopsis
Procedure: (§1) Following inoculation, infected plants were monitored daily over a 3- to 4-day period for symptom development and bacterial multiplication. For experiments described in FIGS. 1 and 5, plants were sprayed with 30 μM dexamethasone (DEX) 24 h before bacterial inoculation (1×10^6 cfu/ml).

[2] = test system: HopM1-mediated destabilization of AtMIN7; test: Immunoblot of HopM1-mediated destabilization of AtMIN7 with protease/proteasome inhibitors; assay type: cell-based; settings: N. benthamiana leaves co-expressing AtMIN7::HA and 6×His::HopM11-712
Procedure: AtMIN-HA and 6×His-HopM1 proteins were detected using the HA and 6×His epitope antibodies, respectively. […] AtMIN7::HA and 6×His::HopM11-712 proteins were detected with HA and 6×His epitope antibodies, respectively.
N. benthamiana plants were transiently transformed with HopM1 and AtMIN proteins.
In brief: leaf disc fractions were homogenized in 1×SDS-polyacrylamide gel electrophoresis (PAGE) sample buffer, boiled for 5 min, and centrifuged for 2 minutes. Proteins in the supernatant were separated on SDS-PAGE gels and transferred to Immobilon-P membrane for immunoblotting procedures (Millipore Corp., Bedford, Mass.).

Pst DC3000 ΔCEL mutant = test: Complementation of virulence defect in transgenic Arabidopsis expressing HopM1 or truncated derivatives; assay type: in vivo; settings: protein expressed in transgenic Arabidopsis after DEX
Procedure: as §1
Leaves were harvested and surface sterilized as follows: 1) whole leaves were removed from a host plant and gently mixed in a 70% ethanol solution for 1 minute. Leaves were blotted briefly on paper towels then rinsed in sterile distilled water for 1 minute, then blotted dry on paper towels. Leaf disks were excised from leaves with a 0.5 cm^2 or smaller cork borer, depending on the size of the sample leaves; 2) leaf disks from the leaves of 2 or more independent replicate plants were pooled for a single tissue sample and placed in a 1.5-mL microfuge tube with 100 μL sterile distilled water, the amount of leaf tissue per tube was recorded as leaf surface area. Three or more samples were harvested for each time point. […] The number of serial dilutions necessary to get countable colonies were determined for each sample, however dilutions to 10^−7 were usually sufficient for any bacterial strain; 7) The samples were plated on the appropriate medium (e.g., Low salt Luria Bertani) supplemented with the necessary antibiotics to select for the specific inoculated bacterial strain. […]

Molecule: C[C@@H]1C[C@H]2[C@@H]3CCC4=CC(=O)C=C[C@]4(C)[C@@]3(F)[C@@H](O)C[C@]2(C)[C@@]1(O)C(=O)CO [DEX, dexamethasone]
- leaf necrosis ([1]; 0.003 μM DEX spray): did not induce leaf necrosis
- time to rapid leaf necrosis ([1]; 30 μM DEX spray): ≤ 10 h

Molecule: CC(C)C[C@@H](C=O)NC(=O)[C@H](CC(C)C)NC(=O)[C@H](CC(C)C)NC(=O)OCc1ccccc1 [MG132] (Cbz-Leu-Leu-Leu-aldehyde)
- effect on HopM1-mediated destabilization of AtMIN7 [2]: blocked

Molecule: CC[C@H](C)[C@H](NC(=O)[C@H]([C@@H](C)CC)N(C)C(C)=O)C(=O)N[C@H](C(=O)N[C@@H](CC(C)C)C(=O)[C@@]1(C)CO1)[C@@H](C)O [epoxomicin]
- effect on HopM1-mediated destabilization of AtMIN7 [2]: blocked

B1: HopM1101-712: HopM1 truncated derivative lacking the first 100 aa (SEQ ID NO:98) (protein, listed as Pseudomonas syringae)
chain: LLQAFKAEHGTAPVSGAPMISSRAALLIGSLLQAEPLPFEVMAEKLSPERYQLKQFQGSDLQQRLEKFAQPGQIPDKAEVGQLIKGFAQSVADQLEHFQLMHDASPATVGQHAKADKATLAVSQTALGEYAGRASKAIGEGLSNSIASLDEHISALDLTLQDAEQGNKESLHADRQALVDAKTTLVGLHADFVKSPEAKRLASVAAHTQLDNVVSDLVTARNTVGGWKGAGPIVAAAVPQFLSSMTHLGYVRLSTSDKLRDTIPETSSDANMLKASIIGMVAGIAHETVNSVVKPMFQAALQKTGLNERLNMVPMKAVDTNTVIPDPFELKSEHGELVKKTPEEVAQDKAFVKSERALLNQKKVQGSSTHPVGELMAYSAFGGSQAVRQMLNDVHQINGQTLSARALASGFGGAVSASSQTLLQLKSNYVDPQGRKIPVFTPDRAESDLKKDLLKGMDLREPSVRTTFYSKALSGIQSSALTSALPPVTAQAEGASGTLSAGAILRNMALAATGSVSYLSTLYTNQSVTAEAKALKAAGMGGATPMLDRTETALNNIRHPNRESLPHTFQKSTLSGIPRVAENAYHMGRGALQLPTQMAVDTVRVVDEGVLNAVASAREALKQPTKDDDALRALEEGLLDPR
- complementation of the virulence defect (multiplication, chlorosis) of the Pst DC3000 ΔCEL mutant (Pst DC3000 ΔCEL mutant): partially restored
